Reference: US7741348B2, “Bisheterocycle tandem compounds useful as antiviral agents, the uses thereof and the compositions comprising such compounds” (Shanghai Institute of Materia Medica, Chinese Academy of …, priority 2005, dated 2010)
Converted amounts (≈) assume the structure as drawn. Like-named read-outs stand apart in the source and are kept apart here.

Legend:
[1] = tested on: Vero (African green monkey kidney) cells; experiment: 50% toxicity concentration in the anti-herpes virus screen (Vero cells); conditions: 50% toxity concentration, Table 3-1 (herpes virus screen, Vero cells)
herpes virus I (HSV-I) = experiment: Anti herpes virus I activity, cytopathic effect in Vero cells; assay type: cell-based; conditions: read-out: Anti herpes virus I HSV-I (IC50)
Text: (§1) 3. Screening of the compounds for the anti-herpes virus I and II activity: Vero (African green monkey kidney) cells were used as virus host to test the inhibition effect of the compounds of the present invention on the cytopathic effect of the Vero cells caused by Herpes virus I and II.

[2] = tested on: MDCK (canine kidney) cells; experiment: 50% toxicity concentration in the anti-influenza screen (MDCK cells); assay type: cell-based; conditions: 50% toxity concentration, Table 3-2 (influenza screen, MDCK cells)
Text: (§2) 4. Screening of the samples for the anti-influenza virus A and B activity: MDCK (canine kidney) cells were used as the virus host to test the inhibition effect of the compounds of the present invention on the cytopathic effect (CPE) of the cells caused by the virus.

influenza A virus = experiment: Anti influenza A virus activity, cytopathic effect (CPE) in MDCK cells; assay type: cell-based
Text: as §2

hepatitis B virus (HBV) [3] = experiment: HBV-DNA replication in HepG2.2.15 culture supernatant (fluorescent quantification PCR); assay type: cell-based; conditions: Hepatitis B virus; HepG2.2.15 supernatant, eighth day, fluorescent quantification PCR; read-out: DNA replication IC50
Text: (§3) Hepatitis B virus (HBV) transgenic human hepatoma carcinoma cell, HepG2.2.15 cell line, can secrete hepatitis B virus particles (containing antigen and DNA) into supernatant when being cultured.
(§4) Under action of antiviral drugs, the contents of HBsAg, HBeAg and viral DNA secreted from cells into the supernatant were detected and are compared with the contents of control groups without drugs, so that the antiviral activity of the compounds of the present invention can be measured as well as the cytotoxic effect of compounds of the present invention. The value concentration of the compounds of the present invention which caused 50% of cells dead and was measured with MTT method was CC50; and the value concentration of the compounds of the present invention which inhibited the secretion of HBsAg and HBeAg detected by ELISA method and inhibited 50% of viral DNA replication detected by fluorescent quantification PCR method was IC50.
(§5) HepG2.2.15 cells were inoculated on a 96-well plate, and the compounds of the present invention were added next day. The medium and the compound solutions of the same concentration were renewed periodically. The culture supernatants were collected on the eighth day to be detected. MTT was added to the cells on the 96-well plate, and MTT dissolving liquid was added after 4 hours to be reacted overnight. OD570 was measured next day on microplate reader. And the cytotoxicity of the compounds of the present invention to the HepG2.2.15 cells, the effect of the compounds of the present invention on the growth of the cells, and the concentration of the compound of the present invention (CC50) causing 50% of the cells dead were estimated according to the OD values.
A suitable amount of culture supernatant was added into a same volume of virus extract solution, and was boiled after mixed uniformly, then centrifuged at 10000 rpm for 5 min under room temperature. A suitable amount of supernatant was collected for PCR amplification. Five HBV-DNA standard samples were used to set a standard curve. According to the obtained viral DNA replication value, the inhibition rates of HBV-DNA replication of the compound of the present invention at different concentrations were calculated, and then the half inhibition rates of the compounds were calculated to obtain IC50. For the samples that can not be calculated for IC50 value, they can be represented by ICX and given the corresponding concentration values.

hepatitis B virus (HBV) [4] = experiment: HBsAg secretion in HepG2.2.15 culture supernatant (ELISA); assay type: cell-based; conditions: HepG2.2.15 supernatant, eighth day, read-out: HBsAg secreation IC50
Text: as §3, §4, §5
(§6) HBsAg and HBeAg were detected with assaying kits (purchased from Sino-American biotechnological company). Samples were added to the coated strip plate, and the same amount of enzyme labeled conjugate was added, after reacting under 37° C. for 1 hour, the plate was washed 5 times. Colorant solutions A and B were added, and the reaction was stopped after 15 minutes, and OD450/630 was measured. The half inhibition rate IC50 of the sample for the HBV antigen was calculated according to the OD values.

[5] = Cytotoxicity to HepG2.2.15 cells (MTT method); assay type: cell-based; conditions: human, HepG2.2.15 cells (HBV-transgenic human hepatoma cells), 50% death concentration, eighth day
Text: as §3, §4, §5

hepatitis B virus (HBV) [6] = experiment: HBeAg secretion in HepG2.2.15 culture supernatant (ELISA); assay type: cell-based; conditions: HepG2.2.15 supernatant, eighth day, read-out: HBeAg secreation IC50
Text: as §3, §4, §5, §6

herpes virus II (HSV-II) = experiment: Anti herpes virus II activity, cytopathic effect in Vero cells; assay type: cell-based; conditions: read-out: Anti herpes virus II HSV-II (IC50)
Text: as §1

HIV-1 integrase = target: T1, HIV-1 integrase (Human immunodeficiency virus type 1 group M subtype B, UniProt P04585); experiment: HIV-1 integrase inhibition (ELISA, chain transfer); assay type: biochemical; conditions: enzyme inhibition
T1 construct: purified HIV-1 integrase
Method: 2. Screening of the compounds for the anti HIV-1 integrase activity: the synthesized 30 oligonucleotide (5′P-[…]-3′,3′-[…]-5′) was used as donor substrate, and the synthesized 20 oligonucleoside (5′-[…]-3′-biotin, biotin-3′-[…]-5′) was used as target substrate. On a 96-well plate, the donor substrate was added with purified HIV-1 integrase to conduct ELISA reaction. The product of chain transfer of target DNA was detected and stained in the biotin labeled alkaline phosphatase system, OD values were measured with microplate reader. Addition of the compounds of the present invention in the reaction system can be used to screen the inhibitor of the enzyme.

HIV-1 protease = HIV-1 protease (Human immunodeficiency virus type 1 group M subtype B, UniProt P04585); experiment: HIV-1 protease inhibition; assay type: biochemical
[7] = Human alphaherpesvirus 2, Vero cells, cytopathic effect

Compound COC(=O)c1nc(-c2csc([C@@H](NC(=O)C3CC3)C(C)C)n2)oc1C [Wang363.43-1] has a TC50 [1] of 707.11 µg/mL (≈ 1950 µM), an IC50 (herpes virus I (HSV-I); Human alphaherpesvirus 1, Vero cells, cytopathic effect) of 369 µg/mL (≈ 1020 µM) and a TC50 [2] of 500 µg/mL (≈ 1380 µM). The IC50 (influenza A virus) was 3.97 µg/mL (≈ 10.9 µM).
COC(=O)c1nc(-c2csc([C@@H](NC(=O)c3cccs3)C(C)C)n2)oc1C [Wang405.49] gave an IC50 (hepatitis B virus (HBV) [3]) of 76 µM, an IC50 (hepatitis B virus (HBV) [4]) of 63.5 µM and a CC50 [5] of 154 µM. For the same compound, the IC50 (hepatitis B virus (HBV) [6]) was 46 µM.
For COC(=O)c1nc(-c2csc([C@@H](NC(=O)c3ccccc3F)C(C)C)n2)oc1C [Wang417.46-J], the TC50 [2] was >1000 µg/mL, the IC50 (hepatitis B virus (HBV) [4]) was 143 µM and the CC50 [5] was 755 µM. For the same compound, the IC50 (influenza A virus) was > 86.2 µg/mL.
Work on COC(=O)c1nc(-c2csc([C@@H](NC(=O)c3cccc(F)c3)C(C)C)n2)oc1C [Wang417.46-P] yielded a TC50 [1] of 198.43 µg/mL (≈ 475 µM), a TC50 [2] of 422.43 µg/mL (≈ 1010 µM) and an IC50 (herpes virus II (HSV-II); [7]) of 107 µg/mL (≈ 255 µM). For the same compound, the IC50 (influenza A virus) was 0.9 µg/mL (≈ 2.16 µM).
Compound COC(=O)c1coc([C@H](C)NC(=O)c2nc(-c3csc([C@@H](NC(=O)C4CCCC4)C(C)C)n3)oc2C)n1 [Wang529.61-1] has a TC50 [1] of 198.43 µg/mL (≈ 375 µM), a TC50 [2] of 191.74 µg/mL (≈ 362 µM) and an IC50 (herpes virus II (HSV-II); [7]) of 107 µg/mL (≈ 201 µM). It also gave an IC50 (hepatitis B virus (HBV) [4]) of 214 µM, a CC50 [5] of 472 µM and an IC50 (influenza A virus) of 3.15 µg/mL (≈ 5.95 µM). The IC50 (hepatitis B virus (HBV) [6]) was 171 µM.
COC(=O)c1nc(-c2csc([C@@H](NC(=O)c3ccccc3)C(C)C)n2)oc1C [Wang 399.46] showed a TC50 [2] of 166.67 µg/mL (≈ 417 µM), an IC50 (HIV-1 integrase) of 365 µM and an IC50 (influenza A virus) of 1.14 µg/mL (≈ 2.85 µM).
COC(=O)c1nc(-c2csc([C@@H](NC(=O)COCc3ccccc3)C(C)C)n2)oc1C [Wang 443.52] gave a TC50 [1] of 168.24 µg/mL (≈ 379 µM), an IC50 (herpes virus I (HSV-I); Human alphaherpesvirus 1, Vero) of 107 µg/mL (≈ 240 µM) and a TC50 [2] of 165.86 µg/mL (≈ 374 µM). For the same compound, the IC50 (herpes virus II (HSV-II); Human alphaherpesvirus 2, Vero) was 78.8 µg/mL (≈ 178 µM) and the IC50 (influenza A virus) was 1.29 µg/mL (≈ 2.91 µM).
In the case of COC(=O)c1coc([C@H](C)NC(=O)c2nc(-c3csc([C@@H](NC(=O)C4CC4)C(C)C)n3)oc2C)n1 [Wang 501.56-1], the TC50 [1] is reported as 707.11 µg/mL (≈ 1410 µM), the TC50 [2] is reported as 303.69 µg/mL (≈ 605 µM) and the IC50 (herpes virus II (HSV-II); [7]) is reported as 293 µg/mL (≈ 585 µM). The IC50 (influenza A virus) was 1.18 µg/mL (≈ 2.35 µM).
In the case of COC(=O)c1coc([C@H](C)NC(=O)c2nc(-c3csc([C@@H](NC(=O)c4ccccc4)C(C)C)n3)oc2C)n1 [Wang 537.59], the TC50 [2] is reported as >1000 µg/mL and the IC50 (influenza A virus) is reported as 1.29 µg/mL (≈ 2.4 µM).
Compound COC(=O)c1coc([C@H](C)NC(=O)c2nc(-c3csc([C@@H](NC(=O)C4CCCCC4)C(C)C)n3)oc2C)n1 [Wang 543.64-1] has a TC50 [2] of 144.34 µg/mL (≈ 266 µM) and an IC50 (influenza A virus) of 57.8 µg/mL (≈ 106 µM).
With COC(=O)c1coc([C@H](C)NC(=O)c2nc(-c3csc([C@@H](NC(=O)Cc4ccccc4)C(C)C)n3)oc2C)n1 [Wang 551.62] the TC50 [2] was 303.69 µg/mL (≈ 551 µM) and the IC50 (influenza A virus) was 1.18 µg/mL (≈ 2.14 µM).
For COC(=O)c1coc([C@H](C)NC(=O)c2nc(-c3csc([C@@H](NC(=O)CC4=CCCCC4)C(C)C)n3)oc2C)n1 [Wang 555.65], the TC50 [2] was 577.35 µg/mL (≈ 1040 µM) and the IC50 (influenza A virus) was 44.5 µg/mL (≈ 80 µM).
For COC(=O)c1nc(-c2csc([C@@H](NC(=O)c3csc([C@@H](NC(=O)OC(C)(C)C)C(C)C)n3)C(C)C)n2)oc1C [Wang 577.72], the TC50 [1] was 176.78 µg/mL (≈ 306 µM), the IC50 (HIV-1 protease) was 57.6 µM and the IC50 (herpes virus II (HSV-II); [7]) was 97.6 µg/mL (≈ 169 µM).
For COC(=O)c1nc(-c2csc([C@@H](NC(=O)C(C)(C)C)C(C)C)n2)oc1C [Yao379.47], the TC50 [2] was 577.35 µg/mL (≈ 1520 µM) and the IC50 (influenza A virus) was 97.8 µg/mL (≈ 258 µM).
In the case of COC(=O)c1nc(-c2csc([C@@H](NC(=O)CCC=C(C)C)C(C)C)n2)oc1C [Yao405.51], the TC50 [2] is reported as 577.35 µg/mL (≈ 1420 µM) and the IC50 (influenza A virus) is reported as 37 µg/mL (≈ 91.3 µM).
Work on CCC(=O)N[C@H](c1nc(-c2nc(C(=O)OC)c(C)o2)cs1)C(C)C [Yao 351.42] yielded a TC50 [2] of 577.35 µg/mL (≈ 1640 µM) and an IC50 (influenza A virus) of 259 µg/mL (≈ 736 µM).
